# Results published in ChEMBL document CHEMBL5360587, “Differentiation-Promoting Effects of Okeaniamides A and B from an Okeania sp. Marine Cyanobacterium on Preadipocytes” (J Nat Prod, 2023).
# How the values were obtained:
# 3T3-L1 [1] = experiment: Induction of adipogenesis in mouse 3T3-L1 cells assessed as increase in lipid droplets formation incubated with media replacement for every 3 days and measured at day 9 in presence of insulin by Oil Red O staining based analysis; type: functional, cell-based; settings: dose 1-10 µM, time 9.0 day
# 3T3-L1 [2] = experiment: Cytotoxicity against mouse 3T3-L1 cells assessed as reduction in cell viability at 10 uM incubated for 3 days by MTT assay; type: toxicity, cell-based; settings: 3t3-l1, 72 h, time 3 day
# 3T3-L1 [3] = experiment: Induction of adipogenesis in mouse 3T3-L1 cells assessed as fold increase in OD value at 10 uM incubated with media replacement for every 3 days and measured for day 9 in presence of insulin by Oil Red O staining based analysis; type: functional; settings: time 9 day
SMILES,Activity (3T3-L1 [1]),Activity (3T3-L1 [2]),fold change (FC) (3T3-L1 [3])
CCCCCCCCC/C(C)=C/[C@@H](C/C=C/CCC(=O)N(C)[C@@H](COC)C(=O)N1CCC[C@H]1C(C)=O)OC,Dose-Dependent Effect,Non-Toxic,2.3
CCCCCC/C=C/C/C(C)=C/[C@@H](C/C=C/CCC(=O)N(C)[C@@H](COC)C(=O)N1CCC[C@H]1C(=O)CC)OC,Dose-Dependent Effect,Non-Toxic,2.1
